From patent US12396977B2, “Composition for treating degenerative brain diseases, containing 2-pentylfuran as active ingredient” (DAEGU GYEONGBUK INSTITUTE OF SCIENCE AND TECHNOLOGY, priority 2019, dated 2025)
Blank lines part the entries; values can stand above or below the compound they belong to.

Key:
[1] = molecular target: T1, Olfr110 (Mus musculus, UniProt A2RT31); assay: Luciferase assay in Hana3A cells, Olfr110; type: cell-based; settings: for reactivity of Olfr110 (relative luciferase activity): Hana3A cells
T1 construct: Full-length odorant receptor genes from mouse and human genomic DNA were amplified using appropriate primers; Lucy (N); Flag (N); Rho (N); expressed in transfected cells; host or cells: Hana3A cells, co-transfected with RTP1S, pCRELuc and pRL-SV40
T1 sequence (A2RT31 1-317): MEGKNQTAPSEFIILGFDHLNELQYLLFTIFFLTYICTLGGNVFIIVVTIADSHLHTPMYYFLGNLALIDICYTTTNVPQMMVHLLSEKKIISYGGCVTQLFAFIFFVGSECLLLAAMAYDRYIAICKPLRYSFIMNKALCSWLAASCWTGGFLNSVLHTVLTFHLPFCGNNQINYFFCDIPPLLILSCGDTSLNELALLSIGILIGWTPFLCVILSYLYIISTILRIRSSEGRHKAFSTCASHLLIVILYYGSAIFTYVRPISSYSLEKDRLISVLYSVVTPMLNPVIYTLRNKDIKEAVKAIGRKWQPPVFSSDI
Experimental: (§1) Next, Hana3A cells were transfected with RTP1S, and their location and presence on the cell membrane were confirmed as previously described (Behrens et al., 2009; Zhuang and Matsunami, 2008). Such transfection was performed using Lipofectamine 2000 (#11668-019; Thermo Fisher Scientific) according to the manufacturer's instructions. More specifically, the transfected cells were grown on a coverslip (#0101050; Marienfeld) coated with poly D lysine (10 μg/ml; #P7280; Sigma Aldrich). Next, the cells were washed with a warm PBS solution and cooled with ice for 30 minutes to block endocytosis. […] The cells were then incubated with normal horse serum (#008-000-121; Jackson ImmunoResearch) at room temperature for 1 hour. […] After being washed with PBS, the cells were treated with a Cy3-conjugated donkey anti-mouse antibody (1:1,000; #715-165-150; Jackson ImmunoResearch), an Alexa488-conjugated donkey anti-mouse antibody (1:1,000; #715-545-150; Jackson ImmunoResearch), or a Cy3-conjugated donkey anti-rabbit antibody (1:1,000; #711-165-152; Jackson ImmunoResearch) at room temperature for 1 hour. The cells were mounted with a Vectashield fluorescent mounting medium containing DAPI (#H-1200; Vector Laboratories). The expression of heterologous odorant receptors was analyzed with a confocal laser scanning microscope LSM700 and ZEN software (Zeiss).
(§2) The Dual-Glo luciferase assay system (#E2940; Promega) was used for odorant receptor ligand screening. More specifically, Hana3A cells were streaked and spread on a white polystyrene 96-well plate (#353296; BD Biosciences) one day before transfection. pCRELuc (1 μg; #219076; Agilent Technologies), pRL-SV40 (1 μg; #E2231; Promega), RTP1S (1 μg), and OR (6 μg; or Mock) vectors were transfected for 24 hours in each plate. Each plate was analyzed using Lipofectamine 2000 (#11668-019; Thermo Fisher Scientific) according to the manufacturer's protocol. Transfected cells were stimulated in CD293 medium (#11913-019; Thermo Fisher Scientific) at 37° C. for 4 hours using diluted odorants at various concentrations. The activity of luciferase was normalized by the activity of Renilla luciferase. The amount of light emitted was measured using a SpectraMax L microplate reader (Molecular Devices).

[2] = tested on: Olfr111; assay: Luciferase assay in Hana3A cells, Olfr111; type: cell-based, mouse; settings: for reactivity of Olfr111 (relative luciferase activity): Hana3A cells
Experimental: as §1, §2

[3] = tested on: primary microglia; assay: Active oxygen (ROS) production in primary microglia; type: cell-based, mouse; settings: for ROS (active oxygen) generation induced by 2-PF after inhibitor pretreatment: then 2-PF
Experimental: Superoxide concentrations were calculated by measuring the degree of decrease in cytochrome c using a VersaMax microplate reader (Babior et al., 1973). Microglia were cultured on a 96-well plate at a concentration of 1.0×10^5 cells/well, and the microglia were activated by a 10 μM ATP solution containing 2-pentylfuran and cytochrome c, or a solution of Sup mixed with cytochalasin B (5 μM; #C66762; Sigma Aldrich). The resulting ROS concentration was measured by changes in light absorption at 550 nm at intervals of 1 minute for 25 minutes.
Active oxygen levels were measured using 2′,7′-dichlorodihydrofluorescein diacetate (DCF-DA, #D6883; Sigma Aldrich) using a method that had undergone minor modifications from the existing method. (Bae et al., 2001). More specifically, the primary microglia were treated with 10 μM DCF-DA in a 24-well plate (5.0×10^5 cells/well) […] at a temperature of 37° C. for 30 minutes. One plate was treated with 2-PF and one was not. Cells in each well were measured by a flow cytometer (FACS Accuri™ C6; BD Biosciences). MFI was measured in the same manner as described above.

[4] = tested on: primary microglia; assay: Cytokine mRNA (qRT-PCR) and protein (ELISA) in microglia; type: cell-based, mouse; settings: then 2-PF
Experimental: In the present example, microglia or astrocytes were primarily extracted from the cerebral cortex of E18.5 mouse embryos (Tamashiro et al., 2012) and then cultured as in Example 1. More specifically, the cortex of mouse embryos was collected and then stored in a cold supernatant (#14170-112; Thermo Fisher Scientific) and pretreated at 37° C. in a 0.25% trypsin solution (#15090-046; Thermo Fisher Scientific) for 20 minutes. Then, cells were plated in a minimal nutrient medium supplemented with 10% FBS (#SH30919.03; Hyclone), 2 mM L-glutamine (#25030-081; Thermo Fisher Scientific), 0.04% glucose (#G7021; Sigma Aldrich), and 1% penicillin/streptomycin (#15140-122; Thermo Fisher Scientific), and then filtered using a 40 μm strainer (#352340; Thermo Fisher Scientific). Microglia were plated at a density of 1.2×10^7 cells in a T75 flask coated with poly-D-lysine (#P7280; Sigma Aldrich). After 2 hours, the mixture was transferred to a Dulbecco's modified eagle medium (DMEM; #SH30243.01; Hyclone), and the medium was replaced every 3 days for 2 weeks. In order to separate the microglia from this mixed solution, first, the mixed solution was shaken at 37° C. at 150 rpm for 2 hours, then the mixed solution containing microglia was separately extracted from the top and transferred, and then the microglia were isolated by centrifugation at 1300 rpm at room temperature for 5 minutes. The isolated microglia were transferred to a culture medium. After the microglia were transferred, the microglia were completely removed by shaking the remaining mixed solution at 160 rpm for 1 day for culturing. Then, astrocytes were isolated by treatment with 0.25% trypsin and again cultured in a T75 flask for 4 days for collection. The purity of the collected microglia and astrocytes was evaluated by qRT-PCR analysis and by immunocytochemistry using Iba-1 and Gfap, which are a marker gene and a protein, respectively.
For the measurement of mRNA, RNA was isolated from red blood cells, microglia, astrocytes, Hana3A cells, or cerebral cortical cells using the MagNa Lyser (Roche Molecular Diagnostics) using TRIzol reagent (Invitrogen, Carlsbad, CA.) according to the manufacturer's protocol. Then, cDNA was generated through reverse transcription using the isolated mRNA (using PrimeScript™ 1st str and cDNA Synthesis kit—#6110; Takara Bio Inc). This process was quantitatively measured in real time through quantitative real-time-PCR (using LightCycler® 480 SYBR Green I Master). The measured values were calculated using the 2-ΔΔCt method.
The expression levels of Tnf, il6, and Il1b cytokines secreted from microglia were measured according to the manufacturer's protocol. More specifically, the expression levels were measured by ELISA 24 hours after treatment with 2-PF or a cell supernatant. […]

[5] = tested on: primary microglia; assay: Western blot of phosphorylated signalling proteins in primary microglia; type: cell-based, mouse; settings: inhibitor pre-culture, then 2-PF
Experimental: Cells and tissues were prepared using the T-PER® reagent (#78510; Thermo Fisher Scientific) with protease inhibitors (#04-693-116-001; Roche Molecular Diagnostics), DMSF (Sigma-Aldrich) and lysed using the MagNA Lyser (Roche Molecular Diagnostics). A total protein extract was quantified by the Bradford assay. The sample was dissolved in 7.5% SDS-PAGE or 4 to 20% gradient mini-PROTEIN TGX Precast Gels (#456-1064; Bio-Rad Laboratories), and then blotted onto nitrocellulose membranes (#10600002; GE Healthcare). The membrane was then blocked in 5% skimmed milk powder, TBST, 0.1% TWEEN® 20 (#P9416; Sigma-Aldrich) and Tris-buffered saline for 1 hour, and then incubated with primary antibodies at 4° C. overnight. The antibodies are as follows: Olfr110 (36 kDa; 1:1,000; #ab177327; Abcam), anti rhodopsin (39 kDa; 1:1,000; #MABN15; Millipore), CREB (43 kDa; 1:1,000; #9197; Cell Signaling Technology), phospho-CREB (43 kDa; 1:1,000; #9198; Cell Signaling Technology), ERK (44 kDa; 1:1,000; #sc094; Santa Cruz), phospho-ERK (42, 44 kDa; 1:1,000; #sc-7383; Santa Cruz), phospho-Akt (60 kDa; 1:500; sc-293125; Santa Cruz), phospho-JNK (46, 54 kDa; 1:500; sc-6254; Santa Cruz), phosphor-p38 (38 kDa; 1:1,000; sc-7973; Santa Cruz), or beta-Actin (45 kDa; 1:10,000; #4967; Cell Signaling Technology). Furthermore, an isotype-matched horseradish peroxidase-conjugated secondary antibody was used at 1:100,000 with anti-rabbit in TBST (#711-035-152; Jackson ImmunoResearch) and 1:40,000 with anti-mouse (#715-035-150; Jackson ImmunoResearch) at room temperature for 2 hours. As an immunoreactive protein band, SuperSignal™ West Pico Chemiluminescent Substrate (#34080; Thermo Fisher Scientific) was used.

[6] = tested on: Olfr920, Olfr1417, and Olfr99; settings: Hana3A cells; MOCK also responded
Experimental: Next, Hana3A cells were transfected with RTP1S, and their location and presence on the cell membrane were confirmed as previously described (Behrens et al., 2009; Zhuang and Matsunami, 2008). Such transfection was performed using Lipofectamine 2000 (#11668-019; Thermo Fisher Scientific) according to the manufacturer's instructions. More specifically, the transfected cells were grown on a coverslip (#0101050; Marienfeld) coated with poly D lysine (10 μg/ml; #P7280; Sigma Aldrich). Next, the cells were washed with a warm PBS solution and cooled with ice for 30 minutes to block endocytosis. […] The cells were then incubated with normal horse serum (#008-000-121; Jackson ImmunoResearch) at room temperature for 1 hour. The resulting cells were incubated with mouse anti rhodopsin (anti-Rho; 1:1,000; #MABN15; Millipore) or rabbit anti Olfr110 (#ab177327; Abcam) at 4° C. overnight. […] The expression of heterologous odorant receptors was analyzed with a confocal laser scanning microscope LSM700 and ZEN software (Zeiss). […] Each plate was analyzed using Lipofectamine 2000 (#11668-019; Thermo Fisher Scientific) according to the manufacturer's protocol. […] The amount of light emitted was measured using a SpectraMax L microplate reader (Molecular Devices).

SMILES: Cc1ccoc1C [2,3-dimethylfuran]
binding to Olfr110 [1]: do not bind
binding to Olfr111 [2]: do not bind

binding to Olfr110 [1]: do not bind
mode of action at Olfr110 [1]: competitive inhibitor (antagonist)
SMILES: CCc1ccco1 [2-EF, 2-ethylfuran]
binding to Olfr111 [2]: do not bind
active oxygen produced by Sup MOI of 100 ([3]; 2-EF pretreated at 0, 100, 300, 500 μM): decreased as the concentration of 2-EF increased
active oxygen produced by Sup MOI 5 plus 500 μM 2-PF ([3]; 2-ethylfuran 0, 100, 300, 500 μM simultaneously): the higher the concentration of 2-EF added, the lower the concentration of active oxygen produced

reactivity of Olfr110 (relative luciferase activity) [1]: showed reactivity
SMILES: CCCCc1ccco1 [2-butylfuran]
reactivity of Olfr111 (relative luciferase activity) [2]: showed reactivity

binding to Olfr110 [1]: do not bind
SMILES: CCCCCCCc1ccco1 [2-heptylfuran]
binding to Olfr111 [2]: do not bind

binding to Olfr110 [1]: do not bind
reactivity of Olfr110 (relative luciferase activity) [1]: showed reactivity
SMILES: CCCCCCc1ccco1 [2-hexylfuran]
binding to Olfr111 [2]: do not bind
reactivity of Olfr111 (relative luciferase activity) [2]: showed reactivity

binding to Olfr110 [1]: do not bind
SMILES: Cc1ccco1 [2-methylfuran]
binding to Olfr111 [2]: do not bind

reactivity of Olfr110 (relative luciferase activity) [1]: showed reactivity
SMILES: CCCc1ccco1 [2-propylfuran]
reactivity of Olfr111 (relative luciferase activity) [2]: showed reactivity

reactivity of Olfr110 (relative luciferase activity) [1]: showed reactivity
SMILES: CC(C)(C)c1ccco1 [2-t-butylfuran]
reactivity of Olfr111 (relative luciferase activity) [2]: showed reactivity

SMILES: O=S(=O)(NCCNC/C=C/c1ccc(Br)cc1)c1cccc2cnccc12 [H-89]
Tnf and Il6 cytokine levels induced by 2-PF after inhibitor pretreatment [4]: great decrease

SMILES: Nc1ncnc2c1ncn2C1CCCO1 (stereo not drawn) [SQ22536]
Tnf and Il6 cytokine levels induced by 2-PF after inhibitor pretreatment [4]: great decrease
CREB and ERK phosphorylation after inhibitor pre-culture and 2-PF [5]: greatly decreased

SMILES: COc1ccc2c(c1)CC[C@@H]1[C@@H]2CC[C@]2(C)[C@@H](NCCCCCCN3C(=O)C=CC3=O)CC[C@@H]12 [U73122]
Tnf and Il6 cytokine levels induced by 2-PF after inhibitor pretreatment [4]: relatively less decrease
ROS (active oxygen) generation induced by 2-PF after inhibitor pretreatment [3]: completely inhibited

reactivity of the remaining three receptors (luciferase) [6]: non-specific reaction
SMILES: CCO [ethanol]

SMILES: O=C1OC2(c3ccccc31)c1ccc(O)c(O)c1Oc1c2ccc(O)c1O [gallein]
ROS (active oxygen) generation induced by 2-PF after inhibitor pretreatment [3]: similarly inhibited

SMILES: COc1cccc(-c2cc(=O)c3ccccc3o2)c1N [pd98059]
Tnf and Il6 cytokine levels induced by 2-PF after inhibitor pretreatment [4]: relatively less decrease
CREB and ERK phosphorylation after inhibitor pre-culture and 2-PF [5]: greatly decreased
